In patent US12502369B2, “Methods of cancer treatment” (K-GEN, INC., priority 2015, dated 2025):
pKi: −log10 of the molar value. Entries after “also recorded” stand apart in the source; their conditions may differ.

Columns and labels:
A549 = assay: Proliferation assay, PKC inhibitor in combination with PKC activators, A549; assay type: cell-based; conditions: for effect on PKC activator-mediated proliferation inhibition: K101A with Go6976 (0.1 or 0.3 μM), GF109203X (0.3 or 1 μM), Enzastaurin (0.3 or 1 μM); for inhibition of K101A anti-proliferative effects: higher concentrations of inhibitor
Experimental: To assess if activation of different classes of PKC is required for anti-proliferation effect of PKC activators, Sotrastaurin, a PKC inhibitor targeting both conventional and novel classes of PKC, was tested in combination with PKC activators in the proliferation assays. Proliferation assay in lung cancer cell line A549 (FIG. 15) and in pancreatic cell line MiaPaCa-2 (FIG. 16) was performed as described in Example 1. […] Then, K101A or K102 was tested in 8- or 9-point titrations in the presence of DMSO or Sotrastaurin (0.1 μM or 1 μM). […] Thus, PKC activator-mediated anti-proliferation effects are dependent on activation of PKC isoforms from conventional, or novel, or both classes of PKCs.
To assess if PKC activation is required for anti-proliferation effect of PKC activators in cancer cell lines that are sensitive to these activators, a pan-PKC inhibitor Go6983, targeting classes of PKCs (conventional, novel, atypical, and PKCμ), was tested in combination with PKC activators in the proliferation assays. Proliferation assay in lung cancer cell line A549 (FIG. 17) and in pancreatic cell line MiaPaCa-2 (FIG. 18) was performed as described in Example 1. […] Then, K101A or K102 was tested in 8- or 9-point titrations in the presence of DMSO or Go6983 (0.1 μM or 1 μM). […] Thus, PKC activation is required for anti-proliferation effect of PKC activators.
Proliferation assay was performed as described in Example 1. […] Thus, PKC activator-mediated anti-proliferation effects appear mainly dependent on activation of novel PKC isoforms.

[1] = system: PKC isoforms and Erk1/2 in A549 cells; assay: PKC inhibitor effect on PKC activator-mediated phosphorylation of PKCs and Erk1/2, A549; assay type: cell-based; conditions: 30 minutes; for K101A- or K102-induced phosphorylation of PKCμ at Ser916 or Ser744/748, PKCδ at Thr505, and Erk / phosphorylation of PKCδ at Tyr311 induced by PKC inhibitor: inhibitor pre-treatment 1 μM
Experimental: To assay if PKC inhibitors have any effects on the PKC activator-mediated phosphorylation of PKCs, A549 cells were pre-treated with DMSO, PKC inhibitors Go6983 (0.3 μM or 1 μM) or Sotrastaurin (0.3 μM or 1 μM) for 30 minutes before adding PKC activators K101A (1 μM) or K102 (0.1 μM) for another 30 minutes (FIG. 22). Cell lysis, protein quantitation, and Western blot analysis were performed as described above in Example 2 and 4. […] Phosphorylation of PKCα/β at Thr638/641 was not affected by the inhibitors (FIG. 22A). […] These PKC inhibitor studies indicate that blocking phosphorylation and activation of various isoforms of PKC is correlated with inhibition of the anti-proliferative effects of the PKC activators.
Cell lysis, protein quantitation, and Western blot analysis were performed as described above in Example 2 and 4. […] These PKC inhibitor studies also indicate that phosphorylation and activation of novel PKC isoforms and PKCμ is required for the anti-proliferative effects of the PKC activators whereas phosphorylation of PKCδ at Tyr311 is correlated with inhibition of the anti-proliferative effects of PKC activators.

Mino cells = assay: Proliferation assay, PKC inhibitors in combination with PKC activators, Mino; assay type: cell-based; conditions: Sotrastaurin 0.3/1 μM, Go6983 0.1/1 μM, Go6976 0.3/1 μM, Enzastaurin 1/3 μM
Experimental: PKC inhibitor studies were performed as described in Example 8, 9, and 10. […] Thus, PKC activator-mediated anti-proliferation effects may be dependent on activation of PKC isoforms from the novel PKC class.

Namalwa cells = assay: Proliferation assay, PKC inhibitors in combination with PKC activators, Namalwa; assay type: cell-based; conditions: Sotrastaurin 0.3/1 μM, Go6983 0.1/1 μM, Go6976 0.3/1 μM, Enzastaurin at very high concentration of 10 μM
Experimental: PKC inhibitor studies were performed as described in Example 15. […] Thus, PKC activator-mediated anti-proliferation effects may be dependent on activation of novel PKC isoforms.

[2] = system: PKC isoforms and Erk1/2 in Mino and Namalwa cells; assay: PKC inhibitor effect on K101A-mediated phosphorylation of PKCs and Erk1/2 in Mino and Namalwa cells; assay type: cell-based; conditions: for phosphorylation of PKCδ at Tyr311 induced by PKC inhibitor: inhibitor pre-treatment 30 minutes; for K101A-induced phosphorylation of PKCμ at Ser916 or Ser744/748, PKCδ at Thr505, and Erk: inhibitor pre-treatment 30 minutes (Go6983, Sotrastaurin 1 μM)
Experimental: Cell lysis, protein quantitation, and Western blot analysis were performed as described above in Example 2 and 4. […] Again, these PKC inhibitor studies indicate the anti-proliferative effects of the PKC activators appear to be positively associated with phosphorylation and activation of novel PKC isoforms and PKCγ, and negatively associated with the phosphorylation of PKCδ at Tyr311.

PKCε = PKCε (Homo sapiens, UniProt Q02156); conditions: cited from earlier work
PKCα, β, & γ = conditions: cited from earlier work
PKCα & β = conditions: cited from earlier work
MiaPaCa-2 = assay: Proliferation assay, PKC inhibitor in combination with PKC activators, MiaPaCa-2; assay type: cell-based; conditions: Sotrastaurin 1 μM with K101A or K102
[3] = inhibitor pre-treatment 0.3 μM or 1 μM

Chain of PKCε (Q02156 whole entry): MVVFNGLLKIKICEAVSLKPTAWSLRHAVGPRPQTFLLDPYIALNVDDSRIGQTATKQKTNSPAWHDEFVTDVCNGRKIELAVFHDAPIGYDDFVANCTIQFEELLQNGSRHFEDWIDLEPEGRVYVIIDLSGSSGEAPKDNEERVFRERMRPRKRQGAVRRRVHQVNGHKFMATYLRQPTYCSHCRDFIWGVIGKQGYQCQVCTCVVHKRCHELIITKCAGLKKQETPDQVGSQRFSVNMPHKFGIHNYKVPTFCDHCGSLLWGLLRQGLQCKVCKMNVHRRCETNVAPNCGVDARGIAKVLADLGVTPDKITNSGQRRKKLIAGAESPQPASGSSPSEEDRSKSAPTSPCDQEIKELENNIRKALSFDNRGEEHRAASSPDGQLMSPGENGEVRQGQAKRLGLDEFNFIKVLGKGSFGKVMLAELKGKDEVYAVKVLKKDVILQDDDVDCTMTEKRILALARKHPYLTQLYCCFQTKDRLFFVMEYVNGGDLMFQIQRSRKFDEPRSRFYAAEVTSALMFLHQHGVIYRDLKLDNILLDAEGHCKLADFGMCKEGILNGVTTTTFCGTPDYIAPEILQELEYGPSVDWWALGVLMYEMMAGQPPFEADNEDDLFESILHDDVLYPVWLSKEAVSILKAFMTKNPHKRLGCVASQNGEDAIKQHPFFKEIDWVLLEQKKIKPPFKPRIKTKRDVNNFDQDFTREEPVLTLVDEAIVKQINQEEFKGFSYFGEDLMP

SMILES: Cn1cc(C2=C(c3cn(C4CCN(Cc5ccccn5)CC4)c4ccccc34)C(=O)NC2=O)c2ccccc21 [Enzastaurin]
- effect on PKC activator-mediated proliferation inhibition (A549): minimal effects; also recorded: weak inhibition
- inhibition of K101A anti-proliferative effects (A549): Slight inhibition
- K101A- or K102-induced phosphorylation of PKCμ at Ser916 or Ser744/748, PKCδ at Thr505, and Erk [1]: minimal effects
- phosphorylation of PKCδ at Tyr311 induced by PKC inhibitor [1]: induced phosphorylation of PKCδ at Tyr311 partially
- effect on PKC activator-mediated anti-proliferation effects (Mino cells): partially blocked
- effect on PKC activator-mediated anti-proliferation effects (Namalwa cells): marginally blocked
- phosphorylation of PKCδ at Tyr311 induced by PKC inhibitor [2]: induced moderate phosphorylation
- pKi (PKCε): 6.96

SMILES: CN(C)CCCn1cc(C2=C(c3c[nH]c4ccccc34)C(=O)NC2=O)c2ccccc21 [GF109203X]
- effect on PKC activator-mediated proliferation inhibition (A549): minimal effects; also recorded: weak inhibition
- inhibition of K101A anti-proliferative effects (A549): Slight inhibition
- K101A- or K102-induced phosphorylation of PKCμ at Ser916 or Ser744/748, PKCδ at Thr505, and Erk [1]: minimal effects
- phosphorylation of PKCδ at Tyr311 induced by PKC inhibitor [1]: induced phosphorylation of PKCδ at Tyr311 partially
- pKi (PKCα, β, & γ): ~7.70

SMILES: Cn1c2ccccc2c2c3c(c4c5ccccc5n(CCC#N)c4c21)CNC3=O [Go6976]
- effect on PKC activator-mediated proliferation inhibition (A549): minimal effects; also recorded: no inhibition
- K101A- or K102-induced phosphorylation of PKCμ at Ser916 or Ser744/748, PKCδ at Thr505, and Erk [1]: minimal effects
- phosphorylation of PKCδ at Tyr311 induced by PKC inhibitor [1]: induced no phosphorylation of PKCδ at Tyr311
- effect on PKC activator-mediated anti-proliferation effects (Mino cells): did not block
- effect on PKC activator-mediated anti-proliferation effects (Namalwa cells): did not block
- phosphorylation of PKCδ at Tyr311 induced by PKC inhibitor [2]: did not induce phosphorylation
- K101A-induced phosphorylation of PKCμ at Ser916 or Ser744/748, PKCδ at Thr505, and Erk [2]: little effect
- pKi (PKCα & β): 8.21 to 8.64

SMILES: CN1CCN(c2nc(C3=C(c4c[nH]c5ccccc45)C(=O)NC3=O)c3ccccc3n2)CC1 [Sotrastaurin]
- effect on PKC activator-mediated anti-proliferation effects (A549; Sotrastaurin 1 μM with K101A or K102): completely abolished
- effect on PKC activator-mediated anti-proliferation effects (MiaPaCa-2): completely abolished
- K101A- and K102-induced phosphorylation of Erk1/2 [1, 3]: blocked dose-dependently
- K101A- or K102-induced phosphorylation, P-PKCμ (Ser916), P-PKCμ (Ser744/748), P-PKCδ (Thr505) [1, 3]: blocked in a dose-dependent manner
- Phosphorylation of PKCα/β at Thr638/641 [1, 3]: not affected
- K101A- or K102-induced phosphorylation of PKCμ at Ser916 or Ser744/748, PKCδ at Thr505, and Erk [1]: completely abolished
- phosphorylation of PKCδ at Tyr311 induced by PKC inhibitor [1]: induced phosphorylation of PKCδ at Tyr311
- effect on PKC activator-mediated anti-proliferation effects (Mino cells): dose-dependently blocked
- effect on PKC activator-mediated anti-proliferation effects (Namalwa cells): dose-dependently blocked
- phosphorylation of PKCδ at Tyr311 induced by PKC inhibitor [2]: induced robust phosphorylation
- K101A-induced phosphorylation of PKCμ at Ser916 or Ser744/748, PKCδ at Thr505, and Erk [2]: completely abolished
